# Patent publication US20040248766A1, “Selective inhibition of intracellular amyloid-beta neurotoxicity in human neurons” (priority 2001, published 2004)
# “Also recorded” adds a separate entry of the source. Numbered stars: 1 amine (or outer) side, 2 acyl side, 3 side chain; on linkers, the order of the positions; unused ones are H or OH. Bridge positions count the residues as written; N and C are the ends. Square brackets hold non-standard residues; d marks the D form. Peptide text beside a SMILES is read from it. I, II: the chains in the order shown. * marks the point of attachment. Actinocin(9to1) = Cc1c2oc3c(C)ccc(C(=O)[*:1])c3nc-2c(C(=O)[*:2])c(N)c1=O; NMeV = CN[C@H](C(=O)O)C(C)C; Cbz = O=C(OCc1ccccc1)*; Sar = CNCC(=O)O; CH2F = FC*
# Key:
# [1] = test system: Aβ1-42-mediated neuronal cell death; experiment: Inhibition of Aβ1-42-mediated neuronal cell death in Aβ1-42-microinjected neurons, TUNEL; assay type: cell-based, human; conditions: 1 hour pre-incubation, 24 hours; for block of Aβ1-42-induced neuronal death (in words): 5 μg/ml cycloheximide or 5 μM actinomycin D; for prevention of Aβ1-42-induced neuronal cell death (in words) / inhibition of the Aβ1-42-induced cell death: 5 μM inhibitor
# Procedure: cDNA Clones. Human Bcl-2 cDNA, Bax α cDNA, and APP695 cDNA were cloned into pCep4β (Invitrogen Canada, Burlington, ON, Canada). The p53 wild type and p53R273H dominant negative cDNA may be cloned in the pCMV-NEO vector. These cDNAs were purified through GlassMAXTM (Gibco-BRL, Rockville, Mass.) and diluted at 30 ng/μl in PBS before injection.
# Neutralizing Bax antibodies. Monoclonal anti-Bax 6A7 (amino acids 12-24: Pharmingen, San Diego, Calif.) and 2D2 (amino acids 3-16: Trevigen, Gaithersburg, Md.), polyclonal anti-Bax N-20 (Santa Cruz Biotechnology, Santa Cruz, Calif.), monoclonal anti-APP 22C11 (Roche Molecular Biochemicals, Laval, PQ, Canada), mouse IgG or rabbit sera were diluted at 50 μg/ml (for 6A7, 2D2, mouse IgG and 22C11) or 25 μg/ml (for polyclonal anti-Bax and rabbit sera) in PBS before use. A toxicity curve was done to determine this concentration as the highest non-toxic concentration that can be injected in neurons.
# (§1) Microinjection. Thin-walled Borosilicate glass capillaries (OD 1.0 mm, ID 0.5 mm) with microfilament (MTW1OOF-4, World Precision Instrument, Sarasota, Fla.) were pulled with a Flaming/Brown Micropipefte Puller (β-87, Sutter, Novato, Calif.) to obtain injection needles with a tip diameter of ˜0.5 μm. Microinjection was performed in the cytosol of each cell using the Eppendorf Microinjector 5246 (Hamburg, Germany) and Burleigh Micromanipulator MIS-5000 (Victor, N.Y.). Human neurons were injected with 25 pl/shot at an injection pressure of 100 hPa, a compensation pressure of 50 hPa, and an injection time of 0.1 s. Human astrocytes, M17, NT2 and La—N-1 cells were injected with 8 pl/shot at an injection pressure of 50 hPa, a compensation pressure of 30 hPa and an injection time of 0.1 s.
# (§2) Measurement of neuronal apoptosis. Cells were fixed in freshly prepared 4% paraformaldehyde/4% sucrose for 20 minutes at room temperature and permeabilized in 0.1% Triton X-100, 0.1% sodium citrate on ice for 2 minutes. Terminal deoxynucleotidyl transferase-mediated dUTP nick end labeling (TUNEL) was performed using the In Situ Cell Death Detection Kit I as described by the manufacturer (Roche Molecular Biochemicals). The percentage of cell death was determined as the ratio of the number of DTR-TLUNEL-double-positive cells over the total number of DIR-positive cells.
# Treatment with caspase inhibitors, cycloheximide, actinomycin D. Caspase pan inhibitor, Z-Valine-Alanine-Aspartic acid-fluoromethylketone (Z-VAD-fmk) (Biomol, Plymounth Meeting, PA); caspase-6 inhibitor, Z-Valine-Glutamic acid-Isoleucine-Aspartic acid-fmk (Z-VEID-fnk); caspase-3 inhibitor, Z-Aspartic acid-Glutamic acid-Valine-Aspartic acid-fmk (Z-DEVD-fmk); and caspase-8 inhibitor, Z-Isoleucine-Glutamic acid-Threomine-Aspartic acid-fmk (Z-IETD-fmk) (Sigma, Oakville, ON, Canada) were dissolved in 100% dimethylsulphoxide (DMSO, Sigma) at 5 mM and were diluted at 5 μM into culture medium immediately before use. The medium was changed every 48 hours.
# Stock solutions of 5 mg/ml cycloheximide and 200 IM actinomycin D were made in sterile distilled water and diluted to 5 μg/ml for cycloheximide and 5 μM for actinomycin D in the culture medium immediately before use.
# Dextran Texas Red (DTR) was co-injected with Aβ1-42 to identi the injected cells from the non-injected cells. The experiment was done on 200 microinjected neurons per preparation of neurons and on three independent neuron preparations.
# [2] = test system: primary human neurons; experiment: Microinjection of Aβ peptides into the cytosol of primary human neurons, cell death by TUNEL; assay type: cell-based; conditions: for intracellular toxicity to human neurons (in words): peptide microinjected into cytosol; for neuronal cell death (in words): fibrillized or non-fibrillized preparation, 10 nM, 24, 48 and 96 hours
# Procedure: Cell cultures. Primary cultures of human neurons and astrocytes were prepared as described in LeBlanc, A., J. Neurosci. 15:7837-46 (1995), incorporated herein by reference. Fresh brain tissues were dissociated with 0.25% trypsin (Gibco-BRL) in phosphate buffered saline (PBS) at 37° C. for 15 minutes. The trypsin was inactivated. by adding 10% decomplemented fetal bovine serum (FBS, HyClone, Logan, Utah.) to the mixture. The dissociated tissues were triturated in 0.1 mg/ml DNaseI (Gibco-BRL) to obtain a homogeneous mixture. The mixture was filtered successively through 130 and 70 gm filters and centrifuged at 15,000 g for 10 minutes at 10° C. to pellet the cells. The cell pellet was washed once with PBS and once with minimal essential media (MEM, Gibco-BRL) in Earle's balanced salt solution containing 0.225% sodium bicarbonate, 1 mM sodium pyruvate, 2 mM L-glutamine, 0.1% dextrose, 1×antibiotic Pen-Strep (all from Gibco-BRL) and 5% decomplemented FBS.
# The cells were plated on poly-L-lysine-coated ACLARTM (Cat. No.: 33C; thickness: 0.5 mm; Allied Chemical, Minneapolis, Minn.) coverslips at a density of 3×10^6 cells/ml. Neurons and astrocytes were incubated at 37° C. in the MEM media with 5% CO2, and the media were changed every 48 hours. For neuron culture, 1 mM fluorodeoxyuridine (FDU, Gibco-BRL) was applied for the first 3 feedings and after that, used weekly to prevent proliferation of dividing cells. […] Microinjection or treatment was performed 10 days after plating for neurons and astrocytes.
# Aβ peptides. Aβ peptides (Bachem, King of Prussia, Pa.) were dissolved in sterile distilled water at 25 μM and incubated at 37° C. for 5 days. The peptides stock solutions were frozen and diluted in 1×PBS immediately before microinjection. […] A 250 μl aliquot was diluted to 0.25 μM and immediately frozen at −20° C. in aliquots of 50 μl. The remaining solution was incubated at 37° C. in Eppendorf tubes with continuous mixing by inversion. After incubation, the samples were removed, vortexed, sonicated twice for 1 minute in a bath type sonicator (ELMA GmbH & Co. KG, Germany) and frozen at −20° C. in […]. Each aliquot was used once to avoid possible effects of freeze and thaw cycles.
# as §1
# The diluted peptides were injected at the indicated concentrations with 100 μg/ml dextran Texas Red (DTR) (MW: 3000, Molecular Probes, Eugene, Oreg.) as a fluorescent marker to recognize the injected cells.
# as §2, with “Biochemicals).” for “Biochemicals). The percentage of cell death was determined as the ratio of the number of DTR-TLUNEL-double-positive cells over the total number of DIR-positive cells.”
# [3] = test system: human neurons; experiment: Exposure of human neurons to extracellular Aβ peptides, TUNEL and propidium iodide; assay type: cell-based; conditions: 10 μM extracellular, 24 hours
# Procedure: To test if this particular batch of peptide might be neurotoxic, neurons were treated with 10 μM of peptides for 24 hours.
compound,measurement,setting,value
"Cc1c2oc3c(C)ccc(C(=O)N[C@@H]4C(=O)N[C@H](C(C)C)C(=O)N5CCC[C@H]5C(=O)N(C)CC(=O)N(C)[C@@H](C(C)C)C(=O)O[C@@H]4C)c3nc-2c(C(=O)N[C@@H]2C(=O)N[C@H](C(C)C)C(=O)N3CCC[C@H]3C(=O)N(C)CC(=O)N(C)[C@@H](C(C)C)C(=O)O[C@@H]2C)c(N)c1=O [actinomycin D] (I: T[dV]P[Sar][NMeV] / II: T[dV]P[Sar][NMeV]; ester I:1-I:C, II:1-II:C; linker I:N-II:N via Actinocin(9to1))",block of Aβ1-42-induced neuronal death (in words),[1],efficiently block
"COC(=O)C[C@H](NC(=O)[C@H](C)NC(=O)[C@@H](NC(=O)OCc1ccccc1)C(C)C)C(=O)CF [Z-VAD-fmk, Z-Valine-Alanine-Aspartic acid-fluoromethylketone] (Cbz-Val-Ala-Asp(OMe)-CH2F)",prevention of Aβ1-42-induced neuronal cell death (in words),[1],completely prevents
C[C@@H]1C[C@@H]([C@H](O)CC2CC(=O)NC(=O)C2)C(=O)[C@@H](C)C1 [cycloheximide],block of Aβ1-42-induced neuronal death (in words),[1],efficiently block
"CC[C@H](C)[C@H](NC(=O)OCc1ccccc1)C(=O)N[C@@H](CCC(=O)O)C(=O)N[C@H](C(=O)N[C@@H](CC(=O)O)C(=O)CF)[C@@H](C)O [Z-IETD-fmk, Z-Isoleucine-Glutamic acid-Threomine-Aspartic acid-fmk] (Cbz-IETD-CH2F)",prevention of Aβ1-42-induced neuronal cell death (in words),[1],completely prevents
non-fibrillized Aβ1-42: disaggregated Aβ1-42 diluted and immediately frozen,intracellular toxicity to human neurons (in words),[2],as neurotoxic as fibrillized
fibrillized Aβ1-40: Aβ1-40 incubated at 37° C. with mixing,neuronal cell death (in words),[2],neither fibrillized nor non-fibrillized Aβ1-40 cause significant cell death
"CC(C)[C@H](NC(=O)[C@H](CCC(=O)O)NC(=O)[C@H](CC(=O)O)NC(=O)OCc1ccccc1)C(=O)N[C@@H](CC(=O)O)C(=O)CF [Z-DEVD-fmk, Z-Aspartic acid-Glutamic acid-Valine-Aspartic acid-fmk]",inhibition of the Aβ1-42-induced cell death,[1],30%
non-fibrillized Aβ1-40: disaggregated Aβ1-40 diluted and immediately frozen,neuronal cell death (in words),[2],neither fibrillized nor non-fibrillized Aβ1-40 cause significant cell death
COC(=O)C[C@H](NC(=O)[C@H](C)NC(=O)[C@@H](NC(=O)[C@H](Cc1ccc(O)cc1)NC(=O)OCc1ccccc1)C(C)C)C(=O)CF [Z-YVAD-fmk],inhibition of the Aβ1-42-induced cell death,[1],30%
Z-Valine-Glutamic acid-Isoleucine-Aspartic acid-fmk [Z-VEID-fmk],prevention of Aβ1-42-induced neuronal cell death (in words),[1],completely prevents
Aβ1-40: 40 amino acid amyloid β peptide (SEQ ID NO: 1),toxicity of extracellular peptide (in words),[3],"do not undergo cell death; also recorded: Neither extracellular Aβ1-40, Aβ1-42, or Aβ40-1 are toxic"
same,effect on cell viability,"[2]; 10 nM aged peptide, between 24 and 96 hours",do not affect cell viability
same,cell death of microinjected neurons,"[2]; 10 nM aged peptide, sixteen days after injection",50%
same,intracellular toxicity to human neurons (in words),[2],not observed to be toxic; also recorded: significant apoptosis only 16 days after microinjection
